One block for each compound: values may come before it. Active and inactive are the calls of the source.
Assays:
[1] = target: T1, Heat shock factor protein 1 (Mus musculus, UniProt P38532); experiment: enhancement of HSF1-driven luciferase signal – cell-based, NIH3T3, luminescence, dose retest, confirmation (AID 435004); type: functional;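 also: stress induced by proteasome inhibitor MG132 added 30 min after compound; luciferase reporter driven by HSF1 response element in NIH3T3 cells; actives raise luminescence as potentiators of the MG132 stress response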
T1 sequence (P38532 whole entry): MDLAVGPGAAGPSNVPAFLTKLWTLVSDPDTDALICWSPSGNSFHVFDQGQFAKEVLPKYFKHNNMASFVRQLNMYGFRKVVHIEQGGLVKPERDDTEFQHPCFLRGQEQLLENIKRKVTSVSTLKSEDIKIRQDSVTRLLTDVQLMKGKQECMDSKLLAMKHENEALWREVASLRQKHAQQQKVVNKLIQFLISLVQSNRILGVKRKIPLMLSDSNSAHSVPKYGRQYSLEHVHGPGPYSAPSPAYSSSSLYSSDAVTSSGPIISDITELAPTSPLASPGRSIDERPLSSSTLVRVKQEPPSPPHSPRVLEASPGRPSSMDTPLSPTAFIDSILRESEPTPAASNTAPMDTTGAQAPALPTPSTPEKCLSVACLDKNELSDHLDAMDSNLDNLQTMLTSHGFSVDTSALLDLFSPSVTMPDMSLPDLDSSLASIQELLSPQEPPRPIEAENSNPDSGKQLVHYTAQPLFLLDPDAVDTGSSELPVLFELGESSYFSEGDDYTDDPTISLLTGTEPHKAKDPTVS

Cytochrome P450 2C19 = Cytochrome P450 2C19 (Homo sapiens, UniProt P33261); experiment: Cytochrome panel assay with activity outcomes. Panel member name: p450-cyp2c19 Compounds with AC50 equal or less than 10 uM are considered active; type: functional; details: read-out: AC50
Cytochrome P450 2D6 = Cytochrome P450 2D6 (Homo sapiens, UniProt P10635);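 also: CYP2D6 member of a cytochrome P450 panel assay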
[2] = target: T1, Heat shock factor protein 1; experiment: decrease of HSF1-responsive luciferase luminescence – cell-based, NIH3T3, dose retest, confirmation (AID 2382); type: functional;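 also: NIH3T3 fibroblasts with HSF1-driven luciferase reporter stressed by proteasome inhibitor MG132; luminescence from HSF1-driven luciferase expression after 8 hours of MG132 stress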
Paired box protein Pax-8 = Paired box protein Pax-8 (Homo sapiens, UniProt Q06710); experiment: PAX8 transcriptional activity inhibition in RMG-I – RMG-I cells, luciferase, cherry-pick, dose response (AID 687027); type: functional, cell-based;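 also: luciferase reporter driven by Pax8 target thyroperoxidase promoter measured by SteadyGlo luminescence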
Cytochrome P450 1A2 = target: T2, Cytochrome P450 1A2 (Homo sapiens, UniProt P05177);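 also: PubChem cytochrome P450 panel assay, CYP1A2 panel member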
T2 sequence (P05177 whole entry): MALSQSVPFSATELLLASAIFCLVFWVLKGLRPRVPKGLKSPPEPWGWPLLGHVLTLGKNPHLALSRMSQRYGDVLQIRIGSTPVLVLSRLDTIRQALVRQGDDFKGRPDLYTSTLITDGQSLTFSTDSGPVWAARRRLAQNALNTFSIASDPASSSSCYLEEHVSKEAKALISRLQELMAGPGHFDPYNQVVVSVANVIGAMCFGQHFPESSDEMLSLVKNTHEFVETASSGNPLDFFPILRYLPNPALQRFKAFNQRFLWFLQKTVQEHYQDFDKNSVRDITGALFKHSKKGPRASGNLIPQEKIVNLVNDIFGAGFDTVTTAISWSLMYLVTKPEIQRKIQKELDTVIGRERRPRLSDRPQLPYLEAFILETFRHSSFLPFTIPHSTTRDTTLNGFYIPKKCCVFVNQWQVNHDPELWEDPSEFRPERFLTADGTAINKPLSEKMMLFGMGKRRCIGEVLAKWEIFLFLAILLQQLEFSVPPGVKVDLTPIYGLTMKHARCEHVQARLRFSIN

Cytochrome P450 3A4 = Cytochrome P450 3A4 (Homo sapiens, UniProt P08684);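 also: CYP3A4 tested as one member of a cytochrome P450 panel screen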
Cytochrome P450 2C9 = Cytochrome P450 2C9 (Homo sapiens, UniProt P11712)
Chain of Cytochrome P450 2C9 (P11712 whole entry): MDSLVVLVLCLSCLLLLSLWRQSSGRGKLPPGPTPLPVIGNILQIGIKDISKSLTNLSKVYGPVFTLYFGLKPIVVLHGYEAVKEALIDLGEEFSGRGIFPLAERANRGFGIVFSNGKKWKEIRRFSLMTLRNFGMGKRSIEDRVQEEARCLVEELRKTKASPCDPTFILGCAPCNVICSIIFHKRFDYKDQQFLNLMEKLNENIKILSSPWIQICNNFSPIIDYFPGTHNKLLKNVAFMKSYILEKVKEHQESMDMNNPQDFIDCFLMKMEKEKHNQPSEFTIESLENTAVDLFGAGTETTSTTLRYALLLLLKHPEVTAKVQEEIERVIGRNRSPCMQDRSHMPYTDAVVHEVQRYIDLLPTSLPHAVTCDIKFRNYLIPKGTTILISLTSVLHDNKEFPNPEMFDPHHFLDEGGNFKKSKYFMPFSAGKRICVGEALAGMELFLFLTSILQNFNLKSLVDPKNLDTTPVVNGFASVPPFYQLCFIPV

Chain of Cytochrome P450 2C19 (P33261 whole entry): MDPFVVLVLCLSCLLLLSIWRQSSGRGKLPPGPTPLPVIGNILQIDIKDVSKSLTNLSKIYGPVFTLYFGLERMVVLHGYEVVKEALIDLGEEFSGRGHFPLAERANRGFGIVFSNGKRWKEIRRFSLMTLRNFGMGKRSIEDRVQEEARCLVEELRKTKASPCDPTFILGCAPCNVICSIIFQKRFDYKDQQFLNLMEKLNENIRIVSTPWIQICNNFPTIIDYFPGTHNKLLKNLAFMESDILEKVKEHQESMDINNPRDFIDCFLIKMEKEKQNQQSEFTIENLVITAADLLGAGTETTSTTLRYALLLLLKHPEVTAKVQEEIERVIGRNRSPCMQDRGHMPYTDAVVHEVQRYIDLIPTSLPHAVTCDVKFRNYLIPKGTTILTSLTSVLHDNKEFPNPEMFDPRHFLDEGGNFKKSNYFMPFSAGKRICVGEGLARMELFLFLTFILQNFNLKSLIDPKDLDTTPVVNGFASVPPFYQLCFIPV
Chain of Cytochrome P450 2D6 (P10635 whole entry): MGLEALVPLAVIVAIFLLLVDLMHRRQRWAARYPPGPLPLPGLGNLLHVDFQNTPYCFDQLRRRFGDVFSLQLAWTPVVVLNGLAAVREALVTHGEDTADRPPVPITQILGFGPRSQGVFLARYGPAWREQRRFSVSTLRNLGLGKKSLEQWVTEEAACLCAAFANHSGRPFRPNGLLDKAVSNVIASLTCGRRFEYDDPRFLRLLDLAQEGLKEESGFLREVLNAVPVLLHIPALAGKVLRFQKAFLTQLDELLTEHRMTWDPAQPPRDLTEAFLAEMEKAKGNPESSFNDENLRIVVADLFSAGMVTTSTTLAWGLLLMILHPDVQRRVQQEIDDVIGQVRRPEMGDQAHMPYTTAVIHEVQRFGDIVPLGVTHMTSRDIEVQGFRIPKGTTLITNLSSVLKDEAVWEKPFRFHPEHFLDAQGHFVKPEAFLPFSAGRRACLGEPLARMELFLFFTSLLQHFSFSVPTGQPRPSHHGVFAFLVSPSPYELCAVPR
Chain of Paired box protein Pax-8 (Q06710 whole entry): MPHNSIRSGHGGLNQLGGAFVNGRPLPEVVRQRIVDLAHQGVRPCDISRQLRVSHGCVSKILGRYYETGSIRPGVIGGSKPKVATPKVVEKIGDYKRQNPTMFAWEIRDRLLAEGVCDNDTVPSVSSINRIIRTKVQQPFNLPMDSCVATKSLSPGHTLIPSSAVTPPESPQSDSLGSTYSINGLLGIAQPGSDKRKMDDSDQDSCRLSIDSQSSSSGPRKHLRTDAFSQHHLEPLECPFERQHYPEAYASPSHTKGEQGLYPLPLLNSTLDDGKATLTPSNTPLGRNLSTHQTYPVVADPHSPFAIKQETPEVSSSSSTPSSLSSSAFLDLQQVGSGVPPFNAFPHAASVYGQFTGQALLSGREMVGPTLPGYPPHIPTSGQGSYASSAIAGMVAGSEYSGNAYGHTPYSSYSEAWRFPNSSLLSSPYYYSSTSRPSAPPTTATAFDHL
Chain of Cytochrome P450 3A4 (P08684 whole entry): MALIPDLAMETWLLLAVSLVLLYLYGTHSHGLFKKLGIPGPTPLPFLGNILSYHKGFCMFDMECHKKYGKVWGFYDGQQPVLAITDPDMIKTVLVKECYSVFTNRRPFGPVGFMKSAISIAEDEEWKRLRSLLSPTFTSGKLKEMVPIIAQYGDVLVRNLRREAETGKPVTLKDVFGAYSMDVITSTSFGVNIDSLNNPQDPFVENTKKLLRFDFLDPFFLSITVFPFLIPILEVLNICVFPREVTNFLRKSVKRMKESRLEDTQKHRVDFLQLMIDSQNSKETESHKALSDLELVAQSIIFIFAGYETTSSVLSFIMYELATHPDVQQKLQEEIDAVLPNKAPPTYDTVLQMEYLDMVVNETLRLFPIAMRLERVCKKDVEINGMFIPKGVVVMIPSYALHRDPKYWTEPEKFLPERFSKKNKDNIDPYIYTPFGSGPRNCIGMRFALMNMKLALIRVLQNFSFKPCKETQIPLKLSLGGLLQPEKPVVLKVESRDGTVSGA

SMILES: CCOc1cccc(C2NCc3ccccc3-n3cccc32)c1O (stereo not given)
EC50 [1]: > 260 µM (inactive)

AC50 (Cytochrome P450 2C19): 20 µM (inconclusive)
AC50 (Cytochrome P450 2D6): 39.8 µM (inconclusive)
SMILES: CCc1c2c(nc3c(C(C)C)cccc13)-c1cccc(=O)n1C2

EC50 [1]: > 260 µM (inactive)
SMILES: OCC1(CCCc2ccccc2)CCN(C2CCSCC2)CC1

EC50 [2]: > 195 µM (not active)
SMILES: CC(=O)c1cnn(-c2c(Cl)cc(Cl)cc2Cl)c1C

AC50 (Cytochrome P450 2D6): 20 µM (inconclusive)
SMILES: Cn1cccc1C(=O)N1CCC[C@@]2(CCN(Cc3ccc(C#N)cc3)C2)C1

AC50 (Paired box protein Pax-8): 11.4 µM (active)
SMILES: C[C@@H]1CN([C@H](C)CO)C(=O)Cc2cc(NC(=O)Nc3ccc(F)cc3)ccc2O[C@H]1CN(C)C(=O)Nc1ccc(C(F)(F)F)cc1

AC50 (Paired box protein Pax-8): 7.6 µM (active)
SMILES: CC(C)(C)OC(=O)NCCCC[C@H](NC(=O)c1[nH]cnc1C(=O)N[C@@H](Cc1ccccc1)C(=O)OC(C)(C)C)C(=O)OC(C)(C)C

EC50 [1]: > 260 µM (inactive)
SMILES: Cc1ccccc1N1CCN(S(=O)(=O)Cc2ccccc2)CC1

EC50 [2]: > 195 µM (not active)
SMILES: CCN(CC)S(=O)(=O)c1cccc(-c2nnc(SCC(N)=O)n2CCc2ccccc2)c1

AC50 (Cytochrome P450 1A2): 39.8 µM (inconclusive)
SMILES: NC1(C(=O)O)CC(C(=O)O)C1 (stereo not given)

EC50 [2]: 0.737 µM (active)
SMILES: Cc1ccc(OC(=O)c2ccc3nc(C)sc3c2)cc1

SMILES: CC[C@@](O)(C(=O)O)c1cc2n(c(=O)c1CO)Cc1cc3ccccc3nc1-2
AC50 (Cytochrome P450 1A2): 3.16 µM (inconclusive)
AC50 (Cytochrome P450 3A4): 3.16 µM (inconclusive)

AC50 (Cytochrome P450 1A2): 15.8 µM (inconclusive)
SMILES: N#Cc1ccc(CN2CC[C@@]3(CCCN(S(=O)(=O)c4ccccc4)C3)C2)cc1

EC50 [1]: > 260 µM (inactive)
SMILES: COCCN(CCOC)c1nc(-c2ccc(C)cc2)nc2ccccc12

AC50 (Cytochrome P450 2C19): 28.2 µM (inconclusive)
AC50 (Cytochrome P450 2D6): 5.62 µM (inconclusive)
SMILES: Cc1ccc2nc(-c3cccnc3)oc2c1

EC50 [1]: > 260 µM (inactive)
SMILES: COC(=O)c1ccccc1N=C(S)N(Cc1ccc2c(c1)OCO2)Cc1cc2ccc(OC)cc2nc1O

EC50 [2]: > 195 µM (not active)
SMILES: O=C(O)c1ccn(Cn2cnc3ccccc32)n1

EC50 [1]: > 260 µM (inactive)
SMILES: C=CCn1c(=O)c2c3c(sc2n2c(Nc4ccccc4)nnc12)CCCC3

EC50 [2]: > 195 µM (not active)
SMILES: O=C(NCc1ccccc1)[C@]1(C(F)(F)F)C[C@H](CCc2ccccc2)CCCO1

AC50 (Cytochrome P450 1A2): 39.8 µM (inconclusive)
SMILES: Cc1onc(O)c1CC[C@H](N)C(=O)O

AC50 (Cytochrome P450 2D6): 5.62 µM (inconclusive)
AC50 (Cytochrome P450 2C9): 4.47 µM (inconclusive)
SMILES: N#CCSc1nc2ccc(N3CCCCC3)cc2c(=O)n1Cc1ccccc1

SMILES: Nc1nc(N)c(/N=N\c2ccc([As](=O)(O)O)c(O)c2)c(N)n1
AC50 (Cytochrome P450 1A2): 6.31 µM (inconclusive)

AC50 (Cytochrome P450 2D6): 3.98 µM (inconclusive)
AC50 (Cytochrome P450 2C9): 39.8 µM (inconclusive)
SMILES: CCCn1nc(C(=O)NCC(C)(C)N2CCOCC2)c2ccccc2c1=O

AC50 (Cytochrome P450 2D6): 25.1 µM (inconclusive)
SMILES: Cc1ccc(N(C(=O)Cn2nnc(-c3ccc(F)cc3)n2)C(CC(C)C)C(=O)NCC2CCCO2)cc1 (stereo not given)

EC50 [1]: > 260 µM (inactive)
SMILES: O=[N+]([O-])c1cccc(-c2ncc3ccccn23)c1

SMILES: CC(=O)c1ccccc1NC(=O)C1C2CCC(O2)C1C(=O)O (stereo not given)
EC50 [1]: > 260 µM (inactive)

AC50 (Cytochrome P450 1A2): 25.1 µM (inconclusive)
SMILES: O=C(/C=C\c1ccc(O)c(O)c1)O[C@@H](Cc1ccc(O)c(O)c1)C(=O)O

AC50 (Cytochrome P450 2C19): 39.8 µM (inconclusive)
AC50 (Cytochrome P450 1A2): 15.8 µM (inconclusive)
AC50 (Cytochrome P450 2C9): 15.8 µM (inconclusive)
SMILES: Cc1cnn(CCC(=O)NN=C(S)Nc2cccc(Cl)c2)c1

From ChEMBL document CHEMBL1201862, “PubChem BioAssay data set” (2004)
